Patent publication US20170209443A1, “ANTI-INFLAMMATORY EFFECT OF ORALLY ACTIVE FYN KINASE INHIBITOR SARA-CATINIB (AZD 0530) AGAINST PARKINSON'S DISEASE AND OTHER RELATED NEURODEGENARATIVE DISEASES” (Iowa State University Research Foundation, Inc., priority 2016, published 2017)
“Also recorded” adds a separate entry of the source. Residues, ends and D or L forms follow the SMILES beside them. *: point of attachment. Cbz = O=C(OCc1ccccc1)*; CH2F = FC*

Columns and labels:
[1] = test system: immortalized WT microglial cells; assay: aggregated αSyn-induced IL-1β secretion from unprimed immortalized microglial cells; assay type: cell-based; conditions: pre-treatment before aggregated αSyn, FIG. 19B
From the text: The current model of the NLRP3 inflammasome postulates a two-step mechanism. A TLR or TNFR1 agonist, acting as the initial signal, induces the expression of pro-[…] and NLRP3 proteins. Subsequently, a second signal causes lysosomal rupture, mitochondrial ROS generation and/or K^+ efflux that acts as a danger signal resulting in the assembly and activation of the inflammasome complex and the processing and secretion of IL-1β into the cell supernatant. Since we observed that αSyn can signal the inflammasome and can also amplify LPS-mediated activation of NLRP3 and pro-IL-1β at the mRNA and protein level, we wondered if it could activate the NLRP3 inflammasome independent of an LPS-mediated priming step. Unprimed and immortalized WT and Capsase-1^−/− microglial cells were treated with aggregated αSyn for 4 h. As assessed via immunoblot, aggregated αSyn induced pro-IL-1β and NLRP3 to equivalent levels in both cell types (FIG. 19A). It also brought about the secretion of IL-1β in WT, and to a strikingly lower extent in the Caspase-1 deficient microglial cells. […] We next utilized primary BMDMs from WT, NLRP3^−/−, Caspase-1^−/− and Caspase-11^−/− mice to test the ability of αSyn to activate the NLRP3 inflammasome in them. As expected, we saw no genotypic difference in the ability of macrophages to induce pro-IL-1β and import αSyn (FIG. 19C). […]

microglial cell line [2] = assay: cell viability assay in microglial cell line; assay type: cell-based; conditions: FIG. 26A
Procedure: (§1) In this study microglial cell line were pretreated with 1-30 μM Saracatinib, a Fyn kinase inhibitor followed by aggregated α-synuclein (1 μM) for 24 hours in a 96 well plate.

microglial cell line [3] = assay: Griess assay, aggregated α-synuclein induced nitrite production; assay type: cell-based; conditions: FIG. 26B
Procedure: Nitric oxide production by primary microglia was measured indirectly by quantification of nitrite in the supernatant using the Griess reagent (Sigma Aldrich). Microglia were plated in poly-D-lysine-coated 96-well plates at 1×10^5 cells/well. Cells were treated with 100 ng/mL of LPS for 24 h and after 100 μL of supernatant was collected from each well, an equal volume of the Griess reagent was added. The samples were incubated on a plate shaker at room temperature for 15 min until a stable color was obtained. The absorbance at 540 nm was measured using a Synergy 2 multi-mode microplate reader (BioTek Instruments) and the nitrite concentration was determined from a sodium nitrite standard curve.
as §1

microglial cell line [4] = assay: Luminex cytokine assay, aggregated α-synuclein induced pro-inflammatory cytokines; assay type: cell-based; conditions: 1-30 μM pretreatment, aggregated α-synuclein (1 μM) 24 hours; FIG. 26C
Procedure: Primary microglia obtained from wild-type, PKCδ^−/− and Fyn^−/− mice were seeded in poly-D-lysine-coated 96-well plates at 1×10^5 cells/well. The cells were treated for 24 h with 100-200 ng/mL LPS or 10 ng/mL TNFα. After treatment, 50 μL of supernatant from each well was collected and frozen at −80° C. The levels of cytokines and chemokines in the supernatants were determined using the Luminex bead-based immunoassay platform (Vignali 2000) and pre-validated multiplex kits (Milliplex mouse cytokine panel Millipore) according to the manufacturer's instructions.
as §1

MPTP-treated mice = assay: microglia activation (IBA-1) in substantia nigra, acute MPTP mouse model; assay type: in vivo, C57 black mice; conditions: FIG. 27; for expression of IBA-1 in SN tissue (Western blot): oral 5 mg/kg once on days 1 and 2, MPTP 18 mg/kg x 4 i.p., 24 hrs after last MPTP
Procedure: Thus, we evaluated whether the Sarcanatib attenuates microglial activation in the substantia nigra. C57 black mice were orally administered saracatinib (5 mg/kg, once) on days 1 and 2. On day 2, after sarcanatib administration, mice were subject to acute MPTP regimen. Mice were administered 18 mg/kg MPTP (4 i.p. injections at 2 hour intervals) and control animals received saline. Mice were sacrificed 24 hrs post last MPTP injection. Brain harvested and nigral tissue lysates were subject to Western blot analysis.

[5] = test system: LPS-primed primary murine microglia; assay: αSyn-induced IL-1β and TNFα production in LPS-primed primary microglia; assay type: cell-based; conditions: pre-treatment post priming, before αSyn; FIG. 14A
Procedure: Misfolded proteins can activate the NLRP3 inflammasomes in microglia (Hafner-Bratkovic et al., 2012; Halle et al., 2008). After obtaining and purifying human αSyn (FIG. 15), we determined that endotoxin contamination was minimal, and that an equivalent concentration of LPS could not activate pro-inflammatory signaling in microglia (data not shown). Aggregation of αSyn was performed as previously described (Zhang et al., 2005). LPS-primed primary murine microglia were treated with α-synuclein for 24 h, with or without the pre-treatment of the pan-Caspase inhibitor ZVAD-FMK or the Caspase-1 specific inhibitor ZYVAD-FMK. […] Next, we treated LPS-primed bone marrow-derived macrophages (BMDMs) from WT, NLRP3^−/−, ASC^−/−, Caspase-1^−/− and Caspase-11^−/− mice with aggregated human α-synuclein for 24 h (FIG. 14B). […] By immunoblotting the levels of pro-IL-1β produced upon LPS treatment (FIG. 14C, 14D), we confirmed that none of these proteins played a role in the priming of the NLRP3 inflammasome. Next, we assessed the inflammasome activating ability of aggregated human αSyn in primary murine microglia by staining for ASC in LPS and LPS+αSyn treated microglia. […] We also utilized the ASC-CFP reporter cell line, which overexpresses ASC tagged with cyan fluorescent protein (CFP). NLRP3 inflammasome activation causes ASC to coalesce into a single speck within each cell. We counted the number of ASC-positive specks to measure inflammasome activation. ASC-CFP cells were primed with LPS and treated with aggregated αSyn for 2 h. Endogenous CFP fluorescence was assessed. In the αSyn treated group, specks of ASC were observed, indicating inflammasome activation (FIG. 14G). […] In summary, aggregated αSyn acts as an efficient danger signal to activate the NLRP3 inflammasome. Data from the A53T model and from PD patient lysates provide in vivo relevance as well. We also observed increased Fyn expression within the microglia in PD tissues, when compared to age-matched control tissues (FIG. 16).

Row | SMILES | αSyn-induced secretion of IL-1β [1] | cytotoxic cell death (microglial cell line [2]; 1-30 μM pretreatment, then aggregated α-synuclein (1 μM) for 24 hours) | cell death (microglial cell line [2]; low dose) | nitrite production induced by aggregated α-synuclein (microglial cell line [3]; 10 μM dose) | aggregated α-synuclein induced nitrite production (microglial cell line [3]; 1-30 μM pretreatment, aggregated α-synuclein (1 μM) 24 hours) | IL-1β production induced by aggregated α-synuclein (microglial cell line [4]) | IL-12 production induced by aggregated α-synuclein (microglial cell line [4]) | TNF-α production induced by aggregated α-synuclein (microglial cell line [4]) | activation of microglia in the substantia nigra (MPTP-treated mice; MPTP-treated mice) | expression of IBA-1 in SN tissue (Western blot) (MPTP-treated mice) | expression of IBA-1 in SN tissue (Western blot) (MPTP-treated mice; listed as saracatinib) | secretion/production of TNFα [5] | αSyn-induced IL-1β cleavage and secretion [5]
1 | CN1CCN(CCOc2cc(OC3CCOCC3)c3c(Nc4c(Cl)ccc5c4OCO5)ncnc3c2)CC1 [Saracatinib] | inhibited by pre-treatment with the Fyn inhibitor Saracatinib in a dose-dependent manner; also recorded: inhibited with pretreatment of the Fyn inhibitor Saracatinib in a dose dependent manner | did not induce cytotoxic cell death | not associated with cell death | attenuates the nitrite production | significantly blocked aggregated α-synuclein induced nitrite production in a dose-dependent manner | significantly attenuated; also recorded: attenuates the secretion | significantly attenuated; also recorded: attenuates the secretion | significantly attenuated; also recorded: attenuates the secretion | blocked activation of microglia | not in Saracatinib and MPTP-treated animals | attenuated the expression of IBA-1 |  | 
2 | COC(=O)C[C@H](NC(=O)[C@H](C)NC(=O)[C@@H](NC(=O)OCc1ccccc1)C(C)C)C(=O)CF [ZVAD-FMK] (Cbz-Val-Ala-Asp(OMe)-CH2F) |  |  |  |  |  |  |  |  |  |  |  | only marginally reduced | reduced in the group pre-treated with the Caspase inhibitors
3 | COC(=O)C[C@H](NC(=O)[C@H](C)NC(=O)[C@@H](NC(=O)[C@H](Cc1ccc(O)cc1)NC(=O)OCc1ccccc1)C(C)C)C(=O)CF [ZYVAD-FMK] |  |  |  |  |  |  |  |  |  |  |  | only marginally reduced | reduced in the group pre-treated with the Caspase inhibitors
